# In patent publication US20240156856A1, “NOVEL APPLICATIONS OF HYALURONIC ACID FOR TREATMENT OF PAIN AND PRURITIS” (THE REGENTS OF THE UNIVERSITY OF CALIFORNIA, priority 2022, published 2024):
# “Also recorded” adds a separate entry of the source.
# How the values were obtained:
# [1] = test system: PGE2 hyperalgesia in male and female rats; test: PGE2-induced mechanical hyperalgesia, Randall-Selitto paw-withdrawal test; assay type: in vivo, Sprague-Dawley rats; details: for PGE2-induced hyperalgesia (mechanical nociceptive threshold): topical 2 μg/μL in 30 μL DMSO vehicle, 30 and 60 min after PGE2
# Protocol: (§1) Experimental animals. Experiments were performed on 220-400 g male and female Sprague-Dawley rats, purchased from Charles River Laboratories (Hollister, CA, USA), housed three per cage, under a 12-hour light/dark cycle, in a temperature- and humidity-controlled animal care facility at the University of California, San Francisco. Food and water were available ad libitum. Experimental protocols were approved by the University of California, San Francisco, Institutional Animal Care and Use Committee, and adhered to the National Institutes of Health Guidelines for the care and use of laboratory animals.
# (§2) Measurement of nociceptive threshold. Mechanical nociceptive threshold was quantified with an Ugo Basile Analgesymeter (Stoelting, Wood Dale, IL, USA), used to perform the Randall-Selitto paw-withdrawal test [61; 68; 69]. This device uses a dome-shaped plinth to apply a mechanical force that increases linearly with time, to the dorsum of a rat's hindpaw. To perform the Randall-Selitto paw-withdrawal test, rats were placed in cylindrical acrylic restrainers with lateral ports that allow access to the hind paw, as described previously. Rats were acclimatized to the testing procedure by placing them in restrainers for 1 h per day for 3 consecutive daily training sessions, and for 30-40 min prior to experiments.
# (§3) Mechanical nociceptive threshold is defined as the force, in grams, applied by the plinth to the dorsum of the hindpaw, at which a rat withdraws its paw from the stimulus. Baseline paw-withdrawal threshold is defined as the mean of three readings taken before administration of test agents. To minimize experimenter bias, individuals conducting experiments were blinded to experimental treatments. Each experiment was performed on a different group of rats. Data are presented as mechanical nociceptive threshold, in grams (g) or percentage change from preintervention baseline.
# Hyaluronans were initially dissolved in distilled water (dH2O) at a concentration of 10 μg/μL, stock solution, and further diluted by adding DMSO with three final concentrations of hyaluronan (1, 2 and 4 μg/μL), protamine or terpene; unless otherwise stated, the final concentration of DMSO was 75%. The DMSO vehicle was 75% DMSO in 0.9% saline. In one experiment, 500-1200 kDa hyaluronan was administered topically in 0.9% saline vehicle. PGE2 was dissolved in 0.9% saline at the same final concentration that we previously injected intradermally (100 ng/5 μL). […]
# [2] = test system: rats with oxaliplatin CIPN; test: Oxaliplatin CIPN mechanical hyperalgesia, Randall-Selitto paw-withdrawal test; assay type: in vivo, Sprague-Dawley rats
# Protocol: as §1, §2, §3
# Hyaluronans were initially dissolved in distilled water (dH2O) at a concentration of 10 μg/μL, stock solution, and further diluted by adding DMSO with three final concentrations of hyaluronan (1, 2 and 4 μg/μL), protamine or terpene; unless otherwise stated, the final concentration of DMSO was 75%. The DMSO vehicle was 75% DMSO in 0.9% saline. In one experiment, 500-1200 kDa hyaluronan was administered topically in 0.9% saline vehicle. PGE2 was dissolved in 0.9% saline at the same final concentration that we previously injected intradermally (100 ng/5 μL). In the experiments in which hyaluronan was dissolved in protamine or terpene vehicle, protamine was first dissolved in distilled water (dH2O) to a concentration of 5 μg/μ1, stock solution of hyaluronan was combined with protamine at the final concentration of 2 μg/μ1, in a volume of 3 μl, for topical administration; terpene was first dissolved in dH2O at the concentration of 2 μg/μ1, then hyaluronan was dissolved in stock solution of terpene to its final concentration of 2 μg/μ1, in a volume of 3 μl, for topical administration).
# Oxaliplatin CIPN: Oxaliplatin was freshly dissolved in 0.9% saline at a concentration of 2 mg/mL just prior to its tail vein intravenous (i.v.) administration (1 mL/kg), to rats briefly anesthetized with isoflurane (2.5% in O2).
# Hyaluronans (30 μL) were administered topically on the dorsum of the hind paw, dispensed from a P200 pipette (Gilson, Middleton, WI, USA) with a plastic pipette tip and then spread manually. […]
# Before use, ODNs were reconstituted in nuclease-free 0.9% saline and then administered by the intrathecal (i.t.) route. As described previously, rats were anesthetized with isoflurane (2.5% in O2) and 120 μg of ODN, in a volume of 20 μL, injected i.t., using a syringe ([…]) attached to a 29-gauge hypodermic needle that was inserted into the subarachnoid space, between the L4 and L5 vertebrae. The i.t. site of the injectate was confirmed by a sudden flick of the rat's tail, a reflex evoked by subarachnoid space access and bolus i.t. injection. […]
# [3] = test system: rats with bortezomib CIPN; test: Bortezomib CIPN mechanical hyperalgesia, Randall-Selitto paw-withdrawal test; assay type: in vivo, Sprague-Dawley rats; details: topical 2 μg/μL
# Protocol: as §1, §2
# as §3, with “baseline. […]” for “baseline.”
# [4] = test system: 5-HT-induced scratching behavior in rats; test: 5-HT-induced scratching (itch) behavior; assay type: in vivo; details: topical, protamine vehicle
# Protocol: Topical hyaluronan attenuates itch behavior in rats. Intradermal administration of serotonin (5-HT) elicited acute scratching behavior, using the method of Nojima and Carstens {Nojima and Carstens, 2003, #99335; PMID: 12814838}. Rats were acclimated to a testing chamber for 30 min, and then briefly anesthetized with 2% isoflurane, during which the fur over the nape of the neck was shaved, and 5-HT (200 μg in 10 μl 0.9% saline vehicle) injected with a 30 gauge needle. In the topical hyaluronan group, hyaluronan (100 μg in 50 μl 75% DMSO in water vehicle) was applied to the skin 30 mins and again 5 mins before administration of 5-HT. Rats were placed back into testing chambers and their behavior video recorded for 40 min. Number of hind paw scratches directed at the injection site were counted by watching video playback at half normal speed, and total number of scratches in 2-min intervals recorded. Rats were treated with 5-HT alone and topical hyaluronan with 5-HT, with 4 days between experimental sessions, allowing for use of paired t-tests to compare data. Data are presented as cumulative number of scratches (FIG. 9A), and as total scratches over the 40-min observation period (FIG. 9B). […] See also, FIG. 10, which includes additional data showing that topical hyaluronan attenuates 5-HT-induced scratching behavior. […] Data are presented as cumulative number of scratches.
# [5] = test system: rats; details: previously shown; cited from earlier work
substance,measurement,setting,value
hyaluronan [500-1200 kDa hyaluronan],PGE2-induced hyperalgesia (mechanical nociceptive threshold),[1]; female rats,attenuated PGE2-induced hyperalgesia
same,PGE2-induced hyperalgesia (mechanical nociceptive threshold),[1]; male rats,attenuated PGE2-induced hyperalgesia
same,magnitude of topical anti-hyperalgesia compared with intradermal injection,"[1]; topical, combined with DMSO",anti-hyperalgesia of similar magnitude to that produced by its intradermal injection
same,duration of anti-hyperalgesic effect after initial topical application,"[2]; CIPN rats, initial application, DMSO vehicle",approximately 60 minutes
same,hyperalgesia induced by oxaliplatin,"[2]; female rats given i.t. GPR30 antisense or mismatch ODN, topical 2 μg/μL, 30 μL",attenuated the hyperalgesia induced by oxaliplatin only in the GPR30 antisense-treated group
same,hyperalgesia induced by oxaliplatin,"[2]; gonad intact female rats, topical 2 μg/μL, 30 μL in DMSO vehicle",did not attenuate hyperalgesia
same,hyperalgesia induced by oxaliplatin,"[2]; male rats given i.t. CD44 antisense or mismatch ODN, topical 2 μg/μL, 30 μL in DMSO",only attenuated the hyperalgesia induced by oxaliplatin in the CD44 mismatch-treated group
same,"CIPN hyperalgesia, effect of hyaluronan molecular weight range","[2]; male rats with oxaliplatin CIPN, topical, combined with DMSO","produced robust anti-hyperalgesia, of similar magnitude and duration"
same,time at which anti-hyperalgesia was still present after the second administration,"[2]; male rats, reapplied at the same site after first effect wore off, DMSO vehicle",≥ 180 min
same,oxaliplatin CIPN hyperalgesia,"[2]; male rats, topical 1 μg/μL, 30 μL in DMSO, day 7",only attenuates CIPN hyperalgesia 10 min after application
same,oxaliplatin CIPN hyperalgesia,"[2]; male rats, topical 2 μg/μL in 0.9% saline, without DMSO",did not attenuate oxaliplatin CIPN hyperalgesia
same,anti-hyperalgesia in oxaliplatin CIPN,"[2]; male rats, topical 2 μg/μL, 30 μL in 5% DMSO",did not produce anti-hyperalgesia
same,anti-hyperalgesia in oxaliplatin CIPN,"[2]; male rats, topical 2 μg/μL, 30 μL in 15% DMSO",did not produce anti-hyperalgesia
same,anti-hyperalgesia in oxaliplatin CIPN,"[2]; male rats, topical 2 μg/μL, 30 μL in 20% DMSO",produced anti-hyperalgesia
same,anti-hyperalgesia in oxaliplatin CIPN,"[2]; male rats, topical 2 μg/μL, 30 μL in 25% DMSO",produced anti-hyperalgesia
same,anti-hyperalgesia in oxaliplatin CIPN,"[2]; male rats, topical 2 μg/μL, 30 μL in 50% DMSO",produced anti-hyperalgesia
same,anti-hyperalgesia in oxaliplatin CIPN,"[2]; male rats, topical 2 μg/μL, 30 μL in 75% DMSO",produced anti-hyperalgesia
same,oxaliplatin CIPN hyperalgesia,"[2]; male rats, topical 2 μg/μL, 30 μL in DMSO, day 7","attenuated hyperalgesia 10, 30 and 60 min after application; also recorded: induced anti-hyperalgesia"
same,"time by which anti-hyperalgesia dissipated, first administration","[2]; male rats, topical 2 μg/μL, 30 μL in DMSO, repeated-administration experiment",≤ 120 min
same,oxaliplatin CIPN hyperalgesia,"[2]; male rats, topical 4 μg/μL, 30 μL in DMSO, day 7","attenuated hyperalgesia 10, 30 and 60 min after application"
same,time after application by which the anti-hyperalgesic effect dissipated,"[2]; male rats, topical 2 and 4 μg/μL in DMSO",≤ 120 min
same,anti-hyperalgesia in oxaliplatin-induced CIPN,"[2]; ovariectomized female rats, topical 2 μg/μL, 30 μL in DMSO",induced anti-hyperalgesia of similar magnitude to that observed in gonad intact male rats
same,hyperalgesia induced by bortezomib,"[3]; female rats, 30 μL in DMSO vehicle",did not attenuate hyperalgesia
same,hyperalgesia induced by bortezomib,"[3]; male rats, 30 μL in DMSO, day 7",attenuated hyperalgesia induced by bortezomib
same,number of 5-HT-induced scratches,[4]; female rats,significantly attenuated the number of 5-HT-induced scratches
same,number of 5-HT-induced scratches,[4]; male rats,significantly attenuated the number of 5-HT-induced scratches
same,nociceptive effect of intradermal injection,[5],induced anti-hyperalgesia
